Where two headings read alike, the source gives them in different places.
Target: T1, FimHtrJ96 (Escherichia coli, UniProt P08191)
T1 construct: coding for the lectin domain of FimH (residues 1-158) with a C-terminal 6-histidine tag; made in house; host or cells: E. coli HB101 (lacking the fim operon), periplasmic extract, plasmid pPKL241
Assay: biochemical
Format: binding, uropathogenic E. coli strain J96
Experimental: To measure the dissociation constant for FimH:alkyl or aryl-mannoside binding, two different binding assays were developed. The first binding assay uses [^3H]-mannose. The amount of radioactively labeled mannose bound to FimHtrJ96 was measured at six different concentrations of [^3H]-mannose, and a hyperbolic curve fitted to the resulting data (FIG. 1A). FimHtrJ96 corresponds to the carbohydrate (mannose) binding domain of FimH from the uropathogenic E. coli strain J96. The dissociation equilibrium constant was determined from this graph at the concentration of mannose […], which corresponds to occupation of half of the binding sites.
Surface Plasmon Resonance measurements were performed on a Biacore3000™. In a first experiment, the kinetic constants and maximal binding were determined for the FimH-antibody interaction. Next, a fixed concentration of FimH (close to the KD of the FimH-antibody interaction) in combination with varying concentrations of carbohydrate, were used to determine the dissociation equilibrium constant of the FimH-saccharide interaction in a competition experiment. Every measurement was repeated at least twice, including testing the variation between different protein and saccharide batches.
To eliminate the possibility of different binding strength for full length FimH and FimHtrJ96, the binding of alpha-D-mannose to FimC:FimH complex was also measured. […] The inhibition of [^3H]-mannose binding was used in a displacement assay to determine the dissociation constant for a synthetic butyl mannoside by measuring the amount of [^3H]-mannose bound to the protein in the presence of increasing amounts of the inhibitor (FIG. 1B). […] To investigate the effect of sequential addition of methyl groups to the O1 oxygen of D-mannose, a series of alkyl mannosides were synthesized and the dissociation constants determined using the [^3H]-mannose displacement assay and by surface plasmon resonance (Table 1).
Surface Plasmon Resonance measurements were performed on a Biacore3000™. The Fab fragments of a monoclonal antibody against FimH were covalently immobilised via lysines at 1000 Resonance Units (1000 pg ligand/mm^2) in flowcell Fc2 on a CM5 biasensor chip (BIAapplications Handbook, Biacore AB, Uppsala, Sweden). Immobilisation buffer was 100 mM NaAc pH 5.0 with 100 mM NaCl. The reference flowcell Fc1 was left blank.
Binding of FimH to the immobilized antibody was measured with a Biacore 3000 instrument in running buffer (phosphate buffered saline with 0.005% surfactant P20 and 3 mM EDTA), on both flowcells Fc1 and Fc2 simultaneously, at a flow rate of 30 μl/min and at 25° C. Complete dissociation of FimH was done with running buffer before starting a new binding cycle. For all measurements, the association time was 3 minutes, the dissociation time was 30 min. All binding cycles were performed in duplicate, including a zero concentration cycle of FimH (injection of running buffer).
In a first experiment, the kinetic constants, ka and kd, and the maximal binding Rmax, were determined for the FimH-antibody interaction (FimH concentrations (nM): 2000, 1000, 500, 250, 125, 62.5, 31.25, 15.625, 7.818, 3.911, 1.957, 0). All analyses were performed with the BIAeval software. A Langmuir binding isotherm with a 1:1 stoichiometry was fitted to the data, from which the kinetic constants and maximal binding were obtained.
In the next experiment, samples containing a fixed concentration of FimH (close to the KD of the FimH-antibody interaction) in combination with varying concentrations of saccharide, were used to determine the dissociation constant of the FimH-saccharide interaction in a competition experiment. First, ten-fold dilutions of the saccharide solution were used to determine the concentration range for binding of the saccharide to FimH.

[1] = displacement assay, FimHtrJ96, read-out: KD
[2] = quoted in b67 for comparison with docking, method not given, read-out: experimentally determined dissociation constant Kd

T1 sequence (P08191 22-179): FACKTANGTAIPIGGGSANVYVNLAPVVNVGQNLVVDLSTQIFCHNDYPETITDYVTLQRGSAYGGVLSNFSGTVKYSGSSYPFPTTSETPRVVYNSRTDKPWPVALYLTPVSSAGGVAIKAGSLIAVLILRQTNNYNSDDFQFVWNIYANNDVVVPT

Compound | ΔG° (Table 1, calculated from KD) [kcal/mol] | Kd [µM] | also measured
Cc1cc(=O)oc2cc(O[C@H]3O[C@H](CO)[C@@H](O)[C@H](O)[C@@H]3O)ccc12 [Umbelliferyl man, 4-Methylumbelliferyl α-mannoside] | -10.8 | – | Kd [1]: 0.012 µM; Kd [2]: 0.02 µM
O=[N+]([O-])c1ccc(OC2O[C@H](CO)[C@@H](O)[C@H](O)[C@@H]2O)cc1 (stereo partly drawn) [p-Nitrophenyl man, p-Nitrophenyl α-mannoside] | -10.3 | – | Kd [1]: 0.026 µM; Kd [2]: 0.044 µM
CCCCCO[C@H]1O[C@H](CO)[C@@H](O)[C@H](O)[C@@H]1O [Pentyl man, pentyl mannoside] | -10.4 | 0.025 | –
OC[C@H]1O[C@@](CO)(O[C@H]2O[C@H](CO)[C@@H](O)[C@H](O)[C@H]2O)[C@@H](O)[C@@H]1O [sucrose] | – | 12800 | ΔG° (Table 2, calculated from KD): -2.6 kcal/mol
CCCO[C@H]1O[C@H](CO)[C@@H](O)[C@H](O)[C@@H]1O [Propyl man, propyl mannoside] | -8.9 | 0.3 | –
OC[C@H]1O[C@H](O)C[C@@H](O)[C@@H]1O [2-deoxy α-D-mannose] | – | 300 | ΔG° (Table 2, calculated from KD): -4.8 kcal/mol
CCCCCCCO[C@H]1O[C@H](CO)[C@@H](O)[C@H](O)[C@@H]1O [Heptyl man, heptyl α-D-mannopyranoside] | -11.3 | 0.005 | ranking of binders (SPR and displacement binding experiments, Table 1 series): best binder
CCO[C@H]1O[C@H](CO)[C@@H](O)[C@H](O)[C@@H]1O [Ethyl man, ethyl mannoside] | -8.1 | 1.2 | –
CCCCO[C@H]1O[C@H](CO)[C@@H](O)[C@H](O)[C@@H]1O [Butyl man, butyl mannoside] | -9.3 | – | Kd (Table 1, O1 alkyl and aryl mannosides, SPR and displacement binding experiments, read-out: KD): 0.151 µM; Kd ([3H]-mannose binding or displacement assay, FimHtrJ96, read-out: KD): 0.15 µM; binding strength relative to D-mannose (times stronger) (butyl mannoside vs D-mannose, displacement assay): around 15 times
O=C(CO)[C@@H](O)[C@H](O)[C@H](O)CO [fructose] | – | 31 | ΔG° (Table 2, calculated from KD): -6.1 kcal/mol; affinity relative to mannose (times lower) (fructose vs mannose, FimH): 15 times
CCCCCCO[C@H]1O[C@H](CO)[C@@H](O)[C@H](O)[C@@H]1O [Hexyl man, hexyl mannoside] | -10.9 | 0.01 | –
CO[C@H]1O[C@H](CO)[C@@H](O)[C@H](O)[C@@H]1O [Methyl man, Methyl mannoside] | -7.7 | 2.2 | –
O=C[C@H](O)[C@@H](O)[C@@H](O)[C@H](O)CO [galactose] | – | 100000 | ΔG° (Table 2, calculated from KD): -1.4 kcal/mol
CCCCCCCCO[C@H]1O[C@H](CO)[C@@H](O)[C@H](O)[C@@H]1O [Octyl man, octyl mannoside] | -10.4 | 0.022 | –

— patent publication US20080171706A1, “Anti-Adhesive Compounds to Prevent and Treat Bacterial Infections” (priority 2004, published 2008)
